Source: ChEMBL document CHEMBL1132184, “Two-stage method for protein-ligand docking” (J Med Chem, 1999)

Target: Prothrombin (Homo sapiens, UniProt P00734)
Assay: Binding affinity against thrombin

N=C(N)C[C@H]1CC[C@@H](NC(=O)[C@@H]2CCCN2C(=O)[C@@H](Cc2ccccc2)NS(=O)(=O)Cc2ccccc2)CC1 was tested. Which Ki did it give?
The Ki was 0.27 nM.
